We go through 13 molecules from US8501804B2, “Bicyclic compound” (Takeda Pharmaceutical Company Limited, priority 2008, dated 2013).

For one assay, the target named is T1, human ACC2 (Nd) (Homo sapiens, UniProt O00763).
T1 construct: His6 (from vector pFAST-BacHTa); made in house; host or cells: SF-9 insect cells, recombinant baculovirus BAC-ACC2 (Nd)
In words: ACC2 inhibitory activity (malachite green). It counts as biochemical. The conditions noted are these: test compound 10 μM; for inhibition at 10 µM: read-out: ACC2 10 μM inhibitory rate (%). On the procedure:
The ACC2 inhibitory action of the compound of the present invention was evaluated by the following method.
(1) Cloning of Human ACC2 Gene and Preparation of Recombinant Baculovirus
Human ACC2 gene was cloned by PCR using a human skeletal muscle cDNA library (Clontech) as a template and Primer 1 and Primer 2 shown below. Primer 1 and Primer 2 were prepared by adding SalI, XbaI restriction enzyme recognition sequences based on the information of the base sequence of human ACC2 gene (Genbank Accession U89344).
PCR was performed using Pyrobest DNA polymerase (TAKARA BIO INC.). The obtained PCR product was cloned to pT7 Blue vector (Novagen) and, after confirmation of the base sequence, digested with restriction enzymes SalI and XbaI. The obtained DNA fragment was inserted into pFAST-BacHTa (Invitrogen) digested with restriction enzymes SalI and XbaI to give expression plasmid ACC2/pFAST-BacHTa.
A plasmid for expression of ACC2 without a mitochondrial targeting sequence was prepared by PCR using the expression plasmid as a template, and Primer 3 (SalI restriction enzyme recognition sequence was added) and Primer 4 prepared by reference to the information of human ACC2 gene base sequence (Genbank Accession U89344).
PCR was performed using Pyrobest-DNA polymerase (TAKARA BIO INC.). The obtained PCR product was cloned to pT7 Blue vector (Novagen) and, after confirmation of the base sequence, digested with restriction enzymes SalI and AflII. The obtained DNA fragment was inserted into ACC2/pFAST-BacHTa digested with restriction enzymes SalI and AflII to give expression plasmid ACC2mito7/pFAST-BacHTa.
Using the expression plasmid ACC2mito7/pFAST-BacHTa and BAC-TO-BAC Baculovirus Expression System (Invitrogen), virus stock BAC-ACC2 of recombinant Baculovirus (N terminal deleted (hereinafter Nd)) was prepared.
(2) Preparation of ACC2 (Nd) Protein
SF-9 cells (Invitrogen) were inoculated to a medium (2 L) for insect cells (Sf-900IISFM medium (Invitrogen) containing 10% fetal bovine serum (Trace), 50 mg/L Gentamicin (Invitrogen), 0.1% Pluronic F-68 (Invitrogen)) at 0.5×10^6 cells/mL, and cultured with shaking in Wave Bioreactor (Wave) at 27° C., 20 rpm, rocking angle 6°, oxygen concentration 30%.
On day 4 of the culture, 3 L of the medium for insect cells was added, the rocking angle was set to 8°, and the cells were cultured. On day 5 of the culture, 100 ml of recombinant Baculovirus BAC-ACC2 (Nd) was added, 5 L of the medium for insect cells was further added, the rocking angle was set to 11°, and the cells were cultured for 3 days. The culture medium was centrifuged at 1000×g for 10 min to give virus-infected cells. The cells were washed with phosphate buffered saline (Invitrogen) and centrifuged under the same conditions. The obtained cells were cryopreserved at −80° C.
The cryopreserved cells were thawed in ice and suspended in 900 ml of 25 mM HEPES buffer (pH 7.5) containing 10% Glycerol, 0.13 M NaCl, 1 mM EDTA, 25 mM Sodium β-Glycerophosphate and 1 mM Sodium Orthovanadate, and supplemented with Complete Protease Inhibitor (Nippon Boehringer Ingelheim Co., Ltd.). The obtained suspension was homogenized three times in a polytron homogenizer (Kinematica) at 20,000 rpm for 30 sec. The obtained cell disruption solution was clarified by centrifugation at 31000×g for 60 min, and filtered through a 0.45 μm filter. The filtrate was passed through a column packed with 60 mL of Ni-NTA Super Flow Gel (QUIAGEN) at a flow rate of about 5 mL/min. The column was washed with buffer A (50 mM HEPES (pH 7.5) containing 0.3 M NaCl), further washed with buffer A containing 20 mM Imidazole, and eluted with buffer A containing 100 mM Imidazole. The eluate was concentrated with Vivaspin 20 (Vivascience) with a molecular weight cut off of 30K. The obtained concentrate was dialyzed against 50 mM HEPES (pH 7.5) containing 10 mM MgCl2, 2 mM Dithiothreitol, 10 mM Tripotassium Citrate and 0.3 M NaCl. The inner dialysate was filtered through a 0.22 μm filter to give ACC2 (Nd). […]

For a further assay, the target named is T2, human ACC1 (Homo sapiens, UniProt Q13085).
T2 construct: His6 (from vector pFAST-BacHTc); made in house; host or cells: SF-9 insect cells, recombinant baculovirus BAC-ACC1
In words: ACC1 inhibitory activity (malachite green). It counts as biochemical. The conditions noted are these: test compound 10 μM; for inhibition at 10 µM: read-out: ACC1 10 μM inhibitory rate (%). As for the experimental part:
The ACC1 inhibitory action of the compound of the present invention was evaluated by the following method.
(1) Cloning of Human ACC1 Gene and Preparation of Recombinant Baculovirus
Human ACC1 gene was cloned by PCR using a human liver cDNA library (Clontech) as a template and Primer 1 and Primer 2 shown below. Primer 1 and Primer 2 were prepared by adding SalI, NotI restriction enzyme recognition sequences based on the information of the base sequence of human ACC1 gene (Genbank Accession U19822).
PCR was performed using Pyrobest DNA polymerase (TAKARA BIO INC.). The obtained PCR product was cloned to pT7 Blue vector (Novagen) and, after confirmation of the base sequence, digested with restriction enzymes SalI and NotI. The obtained DNA fragment was inserted into pFAST-BacHTc (Invitrogen) digested with restriction enzymes SalI and NotI to give expression plasmid ACC1/pFAST-BacHTc.
Using the expression plasmid ACC1/pFAST-BacHTc and BAC-TO-BAC Baculovirus Expression System (Invitrogen), virus stock BAC-ACC1 of recombinant Baculovirus was prepared.
(2) Preparation of ACC1 Protein
SF-9 cells (Invitrogen) were inoculated to a medium (1 L) for insect cells (Sf-900IISFM medium (Invitrogen) containing 10% fetal bovine serum (Trace), 50 mg/L Gentamicin (Invitrogen), 0.1% Pluronic F-68 (Invitrogen)) at 1×10^6 cells/mL, and cultured with shaking in 2 L meyer at 27° C., 100 rpm.
After 24 hr of the culture, 10 mL of recombinant Baculovirus BAC-ACC1 was added, and the cells were cultured for 3 days. The culture medium was centrifuged at 1000×g for 5 min to give virus-infected cells. The cells were washed with phosphate buffered saline (Invitrogen) and centrifuged under the same conditions. The obtained cells were cryopreserved at −80° C.
The cryopreserved cells were thawed in ice and suspended in 100 mL of 25 mM HEPES buffer (pH 7.5) containing 10% Glycerol, 0.13 M NaCl, 1 mM EDTA, 25 mM Sodium […] and 1 mM Sodium Orthovanadate, and supplemented with Complete Protease Inhibitor (Nippon Boehringer Ingelheim Co., Ltd.). The obtained suspension was homogenized three times in a polytron homogenizer (Kinematica) at 20,000 rpm for 30 sec. The obtained cell disruption solution was clarified by centrifugation at 185700×g for 50 min, and filtered through a 0.45 μm filter. The filtrate was passed through a column packed with 12 ml of Ni-NTA Super Flow Gel (QUIAGEN) at a flow rate of about 5 mL/min. The column was washed with buffer A (50 mM HEPES (pH 7.5) containing 0.3 M NaCl), further washed with buffer A containing 20 mM Imidazole, and eluted with buffer A containing 100 mM Imidazole. The eluate was concentrated with Vivaspin 20 (Vivascience) with a molecular weight cut off of 30K. The obtained concentrate was dialyzed against Sephadex G-25 (Amersham Biosciences, 358 mL) equilibrated with 50 mM HEPES (pH 7.5) containing 10 mM MgCl2, 2 mM Dithiothreitol, 10 mM Tripotassium Citrate and 0.3 M NaCl. The inner dialysate was concentrated with Vivaspin 20 (Vivascience) with molecular weight cut off of 30K, and concentrate was filtered through a 0.22 μm filter to give ACC1. The obtained ACC1 was cryopreserved at −80° C.
(3) Measurement of ACC1 Inhibitory Activity
ACC1 (0.93 mg/ml) obtained in the above-mentioned (2) was diluted with an enzyme reaction buffer (50 mM HEPES (pH 7.5), 10 mM MgCl2, 10 mM Tripotassium Citrate, 2 mM Dithiothreitol, 0.75 mg/ml Fatty acid free BSA) to a concentration of 8 μg/ml, and the mixture was added to each well of a 384 well assay plate (Nunc 265196) by 10 μl. A test compound was dissolved in dimethyl sulfoxide (DMSO) and the mixture was diluted with an enzyme reaction buffer and the resulting solution (5 μl) was added to each well. The mixture was incubated at 30° C. for 60 min. Then, a substrate solution (50 mM KHCO3, 200 μM ATP, 200 μM Acetyl-CoA, 5 μl) was added to each well, and the mixture was reacted at 30° C. for 20 min (test compound addition group). […]

T1 sequence (O00763 117-2458 limits assumed): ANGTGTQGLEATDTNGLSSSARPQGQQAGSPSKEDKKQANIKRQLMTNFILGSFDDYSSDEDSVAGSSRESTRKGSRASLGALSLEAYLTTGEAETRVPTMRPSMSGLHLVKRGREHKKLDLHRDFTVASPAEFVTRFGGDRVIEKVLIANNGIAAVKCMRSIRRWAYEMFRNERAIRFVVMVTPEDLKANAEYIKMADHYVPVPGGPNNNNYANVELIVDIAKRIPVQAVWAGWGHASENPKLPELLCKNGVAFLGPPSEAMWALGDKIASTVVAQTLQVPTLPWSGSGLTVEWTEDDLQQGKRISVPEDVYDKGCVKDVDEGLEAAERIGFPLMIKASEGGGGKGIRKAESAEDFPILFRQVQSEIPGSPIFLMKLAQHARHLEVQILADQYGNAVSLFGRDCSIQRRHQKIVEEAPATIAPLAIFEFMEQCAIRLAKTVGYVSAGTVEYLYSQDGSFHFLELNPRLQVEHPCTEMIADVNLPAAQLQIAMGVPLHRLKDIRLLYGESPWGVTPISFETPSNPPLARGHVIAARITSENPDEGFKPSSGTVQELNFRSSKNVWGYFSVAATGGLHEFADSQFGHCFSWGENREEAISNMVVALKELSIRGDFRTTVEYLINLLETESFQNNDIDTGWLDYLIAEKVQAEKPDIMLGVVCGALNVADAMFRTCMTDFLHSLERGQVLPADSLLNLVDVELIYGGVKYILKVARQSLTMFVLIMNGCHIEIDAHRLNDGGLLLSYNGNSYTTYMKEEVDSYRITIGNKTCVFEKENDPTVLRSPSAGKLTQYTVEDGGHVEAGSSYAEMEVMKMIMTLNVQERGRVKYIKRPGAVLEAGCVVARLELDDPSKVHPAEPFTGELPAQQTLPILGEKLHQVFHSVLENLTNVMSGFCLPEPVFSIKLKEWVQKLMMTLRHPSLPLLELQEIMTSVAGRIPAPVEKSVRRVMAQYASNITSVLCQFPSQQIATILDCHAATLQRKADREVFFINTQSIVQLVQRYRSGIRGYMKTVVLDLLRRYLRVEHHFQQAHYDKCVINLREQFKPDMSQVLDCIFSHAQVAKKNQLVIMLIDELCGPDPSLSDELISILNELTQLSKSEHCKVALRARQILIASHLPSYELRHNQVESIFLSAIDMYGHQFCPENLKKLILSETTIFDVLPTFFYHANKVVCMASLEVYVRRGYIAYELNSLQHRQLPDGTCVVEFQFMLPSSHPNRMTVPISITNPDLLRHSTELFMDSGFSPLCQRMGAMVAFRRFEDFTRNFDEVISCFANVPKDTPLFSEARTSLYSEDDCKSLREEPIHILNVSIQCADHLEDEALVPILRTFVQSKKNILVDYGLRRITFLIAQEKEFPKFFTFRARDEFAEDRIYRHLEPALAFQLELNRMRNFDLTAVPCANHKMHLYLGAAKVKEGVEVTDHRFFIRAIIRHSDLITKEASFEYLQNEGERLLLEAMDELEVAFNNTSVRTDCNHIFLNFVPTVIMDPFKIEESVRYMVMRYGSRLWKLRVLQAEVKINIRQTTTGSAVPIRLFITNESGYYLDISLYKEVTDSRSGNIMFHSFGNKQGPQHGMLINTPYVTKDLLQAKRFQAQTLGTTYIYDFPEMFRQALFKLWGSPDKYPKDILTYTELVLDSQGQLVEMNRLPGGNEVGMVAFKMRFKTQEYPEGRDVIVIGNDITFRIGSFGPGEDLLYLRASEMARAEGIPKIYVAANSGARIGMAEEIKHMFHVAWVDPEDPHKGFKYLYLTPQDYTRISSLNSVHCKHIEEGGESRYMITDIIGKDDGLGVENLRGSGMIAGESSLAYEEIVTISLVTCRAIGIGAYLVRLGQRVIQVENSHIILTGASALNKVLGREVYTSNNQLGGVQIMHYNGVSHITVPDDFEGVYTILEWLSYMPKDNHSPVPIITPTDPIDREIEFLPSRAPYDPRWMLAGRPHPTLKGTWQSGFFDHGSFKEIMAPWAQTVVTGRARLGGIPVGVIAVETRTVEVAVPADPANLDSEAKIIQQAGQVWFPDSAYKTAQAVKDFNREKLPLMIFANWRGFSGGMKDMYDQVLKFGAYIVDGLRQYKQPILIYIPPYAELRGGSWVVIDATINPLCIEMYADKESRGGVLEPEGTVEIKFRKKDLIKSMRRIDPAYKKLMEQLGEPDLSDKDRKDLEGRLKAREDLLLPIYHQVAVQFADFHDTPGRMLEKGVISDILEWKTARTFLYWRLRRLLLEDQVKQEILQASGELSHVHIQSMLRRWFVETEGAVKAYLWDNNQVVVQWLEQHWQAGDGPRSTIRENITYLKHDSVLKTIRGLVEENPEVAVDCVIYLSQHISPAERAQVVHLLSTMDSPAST

On to `CC(=O)N[C@@H](C)[C@@H]1Cc2ccc(OCc3cnc(OCC4CC4)cc3F)cc2O1` [Example 142, N-{(1S)-1-[(2S)-6-{[6-(cyclopropylmethoxy)-4-fluoropyridin-3-yl]methoxy}-2,3-dihydro-1-benzofuran-2-yl]ethyl}acetamide], for which the inhibition at 10 µM is 74% on human ACC2 (Nd) and 42% at human ACC1.

`CCCCOc1ccc(CCc2ccc3cc(C(C)NC(C)=O)oc3c2)cc1` (centres unmarked) [Example 189 (retention time shorter)]: the “ACC2 10 μM inhibitory rate (%)” value on human ACC2 (Nd) stood at 77%. For the same molecule, the “ACC1 10 μM inhibitory rate (%)” value at human ACC1 is given as 37%.

As to `CC(=O)N[C@@H](C)[C@@H]1Cc2ccc(OCc3ccc(OCC4CC4)nc3F)cc2O1` [Example 143, N-{(1S)-1-[(2S)-6-{[6-(cyclopropylmethoxy)-2-fluoropyridin-3-yl]methoxy}-2,3-dihydro-1-benzofuran-2-yl]ethyl}acetamide], the inhibition at 10 µM on human ACC2 (Nd) is 73%; on human ACC1, 8%.

For `CC(=O)N[C@@H](C)[C@@H]1Cc2ccc(C#Cc3ccc(OCC4CC4)nc3)cc2O1` [Example 139, N-{(1S)-1-[(2S)-6-{[6-(cyclopropylmethoxy)pyridin-3-yl]ethynyl}-2,3-dihydro-1-benzofuran-2-yl]ethyl}acetamide], the inhibition at 10 µM is 100% on human ACC2 (Nd) and 37% at human ACC1.

As for `CC(=O)NC(C)c1cc2ccc(CCc3ccc(OCCC4CC4)cc3)cc2o1` (centres unmarked) [Example 174, N-[1-(6-{2-[4-(2-cyclopropylethoxy)phenyl]ethyl}-1-benzofuran-2-yl)ethyl]acetamide], the inhibition at 10 µM at human ACC2 (Nd) worked out at 80%; at human ACC1 it was 34%.

Consider `CC(=O)NC(C)c1cc2ccc(CCc3ccc(OCC4CC4)cc3)cc2o1` (centres unmarked) [Example 191 (retention time shorter), N-[1-(6-{2-[4-(cyclopropylmethoxy)phenyl]ethyl}-1-benzofuran-2-yl)ethyl]acetamide], for which the “ACC2 10 μM inhibitory rate (%)” value at human ACC2 (Nd) is 75%. On human ACC1, the “ACC1 10 μM inhibitory rate (%)” value is on record as 20%.

On to `CCCOc1ccc(CCc2ccc3cc(C(C)NC(C)=O)oc3c2)cc1` (centres unmarked) [Example 32, N-(1-{6-[2-(4-propoxyphenyl)ethyl]-1-benzofuran-2-yl}ethyl)acetamide], for which the inhibition at 10 µM at human ACC2 (Nd) is 84%; on human ACC1, 36%.

Turning to `CCOc1ccc(CCc2ccc3cc(C(C)Nc4ccon4)oc3c2)cc1` (centres unmarked) [Example 124, N-(1-{6-[2-(4-ethoxyphenyl)ethyl]-1-benzofuran-2-yl}ethyl)isoxazol-3-amine], the inhibition at 10 µM was determined as 81% at human ACC2 (Nd) and 16% on human ACC1.

Consider `CC(=O)NC(C)c1cc2ccc(CCc3ccc4c(c3)C(C)(C)CO4)cc2o1` (centres unmarked) [Example 152, N-(1-{6-[2-(3,3-dimethyl-2,3-dihydro-1-benzofuran-5-yl)ethyl]-1-benzofuran-2-yl}ethyl)acetamide], for which the inhibition at 10 µM on human ACC2 (Nd) was determined as 78%; at human ACC1 it was 39%.

On to `CC(=O)NC(C)c1cc2cc(OCc3ccc(OCC4CC4)cc3F)ccc2o1` (centres unmarked) [Example 116 (retention time longer), N-[1-(5-{[4-(cyclopropylmethoxy)-2-fluorobenzyl]oxy}-1-benzofuran-2-yl)ethyl]acetamide], for which, on human ACC2 (Nd), the “ACC2 10 μM inhibitory rate (%)” value stood at 63%. The “ACC1 10 μM inhibitory rate (%)” value at human ACC1 turned out to be 24%.

`CCOc1ccc(CCc2cnc3cc([C@H](C)NC(C)=O)oc3c2)cc1` [Example 107, N-[(1S)-1-{6-[2-(4-ethoxyphenyl)ethyl]furo[3,2-b]pyridin-2-yl}ethyl]acetamide]: the inhibition at 10 µM on human ACC2 (Nd) is 70%; on human ACC1, 12%.

For `CC(Nc1ccon1)c1cc2ccc(CCc3ccc(OCC4CC4)cc3)cc2o1` (centres unmarked) [Example 176, N-[1-(6-{2-[4-(cyclopropylmethoxy)phenyl]ethyl}-1-benzofuran-2-yl)ethyl]isoxazol-3-amine], the inhibition at 10 µM was found to be 88% at human ACC2 (Nd) and 31% on human ACC1.

With `CC(=O)NC(C)c1cc2cc(OCc3cnc(OCC4CC4)cc3F)ccc2o1` (centres unmarked) [Example 154, N-[1-(5-{[6-(cyclopropylmethoxy)-4-fluoropyridin-3-yl]methoxy}-1-benzofuran-2-yl)ethyl]acetamide], the inhibition at 10 µM at human ACC2 (Nd) came to 78%; on human ACC1 it was 39%.
